How the values were obtained:
Experiment in all cases: Dundee kinase panel
Type in all cases: biochemical
Conditions in all cases: for remaining activity at 1 µM: read-out: residual activity
BRK = target: T1, BRK (Homo sapiens, UniProt Q13882)
T1 construct: lines 1-140) and Reaction Biology
Description: (§1) Compounds were screened at 1 μM. For key hits, pIC50 values were then determined by HTRF as above. […] Stability in mouse and human liver microsomes was determined by Cyprotex.

CSK = target: T2, CSK (Homo sapiens, UniProt P41240)
T2 construct: lines 1-140) and Reaction Biology
Description: as §1

ERK8 = target: T3, ERK8 (Homo sapiens, UniProt Q8TD08)
T3 construct: lines 1-140) and Reaction Biology
T3 sequence (Q8TD08 1-544): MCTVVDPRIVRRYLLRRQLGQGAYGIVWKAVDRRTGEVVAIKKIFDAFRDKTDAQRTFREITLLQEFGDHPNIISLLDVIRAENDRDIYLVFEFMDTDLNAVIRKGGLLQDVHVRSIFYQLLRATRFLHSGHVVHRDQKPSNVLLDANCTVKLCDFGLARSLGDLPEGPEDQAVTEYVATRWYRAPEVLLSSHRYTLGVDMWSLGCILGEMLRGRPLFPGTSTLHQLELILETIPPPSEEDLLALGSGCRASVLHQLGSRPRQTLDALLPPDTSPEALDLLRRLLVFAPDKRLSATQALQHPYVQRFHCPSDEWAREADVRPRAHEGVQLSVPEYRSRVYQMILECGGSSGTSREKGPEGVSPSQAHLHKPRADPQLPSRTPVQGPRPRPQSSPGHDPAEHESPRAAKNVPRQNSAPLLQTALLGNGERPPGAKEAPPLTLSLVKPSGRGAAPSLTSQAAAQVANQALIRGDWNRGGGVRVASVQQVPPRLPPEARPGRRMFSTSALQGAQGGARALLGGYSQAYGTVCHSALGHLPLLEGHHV
Description: as §1

IR = target: T4, IR (Homo sapiens, UniProt P06213)
T4 construct: lines 1-140) and Reaction Biology
Description: as §1

IRAK1 = target: T5, IRAK1 (Homo sapiens, UniProt P51617)
T5 construct: lines 1-140) and Reaction Biology
Description: as §1

IRAK4 = target: T6, IRAK4 (Homo sapiens, UniProt Q9NWZ3)
T6 construct: lines 1-140) and Reaction Biology
T6 sequence (Q9NWZ3 1-460): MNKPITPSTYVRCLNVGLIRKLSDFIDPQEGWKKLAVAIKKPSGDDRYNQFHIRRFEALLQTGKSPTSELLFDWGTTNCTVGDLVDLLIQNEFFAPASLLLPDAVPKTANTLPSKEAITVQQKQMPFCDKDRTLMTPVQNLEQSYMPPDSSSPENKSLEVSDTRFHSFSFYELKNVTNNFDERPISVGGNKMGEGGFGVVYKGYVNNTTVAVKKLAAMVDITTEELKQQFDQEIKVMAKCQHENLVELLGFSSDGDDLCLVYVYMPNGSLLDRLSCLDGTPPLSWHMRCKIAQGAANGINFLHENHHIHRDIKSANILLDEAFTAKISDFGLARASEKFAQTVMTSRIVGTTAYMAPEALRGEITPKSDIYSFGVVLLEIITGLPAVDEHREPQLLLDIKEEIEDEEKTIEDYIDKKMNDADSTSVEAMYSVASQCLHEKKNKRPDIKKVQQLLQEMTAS
Description: as §1

MAPKAP-K3 = target: T7, MAPKAP-K3 (Homo sapiens, UniProt Q16644)
T7 construct: lines 1-140) and Reaction Biology
Description: as §1

MARK2 = target: T8, MARK2 (Homo sapiens, UniProt Q7KZI7)
T8 construct: lines 1-140) and Reaction Biology
Description: as §1

MARK3 = target: T9, MARK3 (Homo sapiens, UniProt P27448)
T9 construct: lines 1-140) and Reaction Biology
Description: as §1

MEKK1 = target: T10, MEKK1 (Homo sapiens, UniProt Q13233)
T10 construct: lines 1-140) and Reaction Biology
Description: as §1

MST2 = target: T11, MST2 (Homo sapiens, UniProt Q13188)
T11 construct: lines 1-140) and Reaction Biology
T11 sequence (Q13188 1-491): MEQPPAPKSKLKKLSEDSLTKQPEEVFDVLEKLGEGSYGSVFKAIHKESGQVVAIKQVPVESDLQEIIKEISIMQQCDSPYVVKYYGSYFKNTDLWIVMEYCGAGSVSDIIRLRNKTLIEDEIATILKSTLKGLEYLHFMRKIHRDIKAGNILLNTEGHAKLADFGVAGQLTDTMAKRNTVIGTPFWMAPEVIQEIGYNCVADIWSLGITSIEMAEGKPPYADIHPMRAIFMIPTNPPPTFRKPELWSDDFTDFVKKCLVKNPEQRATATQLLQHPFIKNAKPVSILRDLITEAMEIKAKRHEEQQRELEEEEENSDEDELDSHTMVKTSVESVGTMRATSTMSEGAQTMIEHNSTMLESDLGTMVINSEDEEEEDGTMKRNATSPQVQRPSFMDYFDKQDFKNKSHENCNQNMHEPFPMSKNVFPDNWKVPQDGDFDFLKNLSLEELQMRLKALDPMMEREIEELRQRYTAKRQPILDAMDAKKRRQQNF
Description: as §1

PAK6 = target: T12, PAK6 (Homo sapiens, UniProt Q9NQU5)
T12 construct: lines 1-140) and Reaction Biology
Description: as §1

PKA = target: T13, PKA (Homo sapiens, UniProt P17612)
T13 construct: lines 1-140) and Reaction Biology
Description: as §1

p38d MAPK = target: T14, p38d MAPK (Homo sapiens, UniProt O15264)
T14 construct: lines 1-140) and Reaction Biology
T14 sequence (O15264 1-365): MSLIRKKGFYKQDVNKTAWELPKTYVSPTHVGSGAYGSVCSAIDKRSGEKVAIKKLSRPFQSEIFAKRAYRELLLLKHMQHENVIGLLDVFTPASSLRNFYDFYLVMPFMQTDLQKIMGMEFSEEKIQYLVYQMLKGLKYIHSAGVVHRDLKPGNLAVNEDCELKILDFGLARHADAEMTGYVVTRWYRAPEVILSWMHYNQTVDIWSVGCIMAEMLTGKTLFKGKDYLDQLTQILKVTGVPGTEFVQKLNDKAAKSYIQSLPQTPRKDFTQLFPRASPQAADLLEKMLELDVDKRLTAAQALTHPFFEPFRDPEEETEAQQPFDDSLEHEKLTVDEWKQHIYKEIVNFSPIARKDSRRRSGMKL
Description: as §1

T8 sequence (Q7KZI7 whole entry): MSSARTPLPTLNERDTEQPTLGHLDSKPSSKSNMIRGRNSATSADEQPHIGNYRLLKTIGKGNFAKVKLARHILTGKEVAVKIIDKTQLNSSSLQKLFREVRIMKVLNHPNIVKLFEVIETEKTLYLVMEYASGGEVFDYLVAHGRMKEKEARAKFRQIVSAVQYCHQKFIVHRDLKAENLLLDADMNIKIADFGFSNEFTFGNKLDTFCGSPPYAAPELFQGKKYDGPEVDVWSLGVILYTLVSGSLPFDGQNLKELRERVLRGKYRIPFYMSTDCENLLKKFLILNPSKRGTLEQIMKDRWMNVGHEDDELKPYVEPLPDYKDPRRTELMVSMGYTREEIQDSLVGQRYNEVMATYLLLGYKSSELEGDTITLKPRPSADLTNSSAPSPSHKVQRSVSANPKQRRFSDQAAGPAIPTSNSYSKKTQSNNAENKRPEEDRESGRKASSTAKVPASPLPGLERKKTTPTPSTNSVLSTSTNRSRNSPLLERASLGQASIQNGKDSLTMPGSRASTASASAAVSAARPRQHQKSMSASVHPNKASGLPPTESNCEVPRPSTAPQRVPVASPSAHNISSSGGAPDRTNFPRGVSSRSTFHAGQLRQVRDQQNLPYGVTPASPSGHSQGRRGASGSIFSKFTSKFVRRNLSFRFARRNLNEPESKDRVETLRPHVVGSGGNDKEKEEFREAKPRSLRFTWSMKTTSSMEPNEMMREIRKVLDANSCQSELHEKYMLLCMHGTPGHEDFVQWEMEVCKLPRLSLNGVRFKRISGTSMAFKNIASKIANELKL
T4 sequence (P06213 28-1382): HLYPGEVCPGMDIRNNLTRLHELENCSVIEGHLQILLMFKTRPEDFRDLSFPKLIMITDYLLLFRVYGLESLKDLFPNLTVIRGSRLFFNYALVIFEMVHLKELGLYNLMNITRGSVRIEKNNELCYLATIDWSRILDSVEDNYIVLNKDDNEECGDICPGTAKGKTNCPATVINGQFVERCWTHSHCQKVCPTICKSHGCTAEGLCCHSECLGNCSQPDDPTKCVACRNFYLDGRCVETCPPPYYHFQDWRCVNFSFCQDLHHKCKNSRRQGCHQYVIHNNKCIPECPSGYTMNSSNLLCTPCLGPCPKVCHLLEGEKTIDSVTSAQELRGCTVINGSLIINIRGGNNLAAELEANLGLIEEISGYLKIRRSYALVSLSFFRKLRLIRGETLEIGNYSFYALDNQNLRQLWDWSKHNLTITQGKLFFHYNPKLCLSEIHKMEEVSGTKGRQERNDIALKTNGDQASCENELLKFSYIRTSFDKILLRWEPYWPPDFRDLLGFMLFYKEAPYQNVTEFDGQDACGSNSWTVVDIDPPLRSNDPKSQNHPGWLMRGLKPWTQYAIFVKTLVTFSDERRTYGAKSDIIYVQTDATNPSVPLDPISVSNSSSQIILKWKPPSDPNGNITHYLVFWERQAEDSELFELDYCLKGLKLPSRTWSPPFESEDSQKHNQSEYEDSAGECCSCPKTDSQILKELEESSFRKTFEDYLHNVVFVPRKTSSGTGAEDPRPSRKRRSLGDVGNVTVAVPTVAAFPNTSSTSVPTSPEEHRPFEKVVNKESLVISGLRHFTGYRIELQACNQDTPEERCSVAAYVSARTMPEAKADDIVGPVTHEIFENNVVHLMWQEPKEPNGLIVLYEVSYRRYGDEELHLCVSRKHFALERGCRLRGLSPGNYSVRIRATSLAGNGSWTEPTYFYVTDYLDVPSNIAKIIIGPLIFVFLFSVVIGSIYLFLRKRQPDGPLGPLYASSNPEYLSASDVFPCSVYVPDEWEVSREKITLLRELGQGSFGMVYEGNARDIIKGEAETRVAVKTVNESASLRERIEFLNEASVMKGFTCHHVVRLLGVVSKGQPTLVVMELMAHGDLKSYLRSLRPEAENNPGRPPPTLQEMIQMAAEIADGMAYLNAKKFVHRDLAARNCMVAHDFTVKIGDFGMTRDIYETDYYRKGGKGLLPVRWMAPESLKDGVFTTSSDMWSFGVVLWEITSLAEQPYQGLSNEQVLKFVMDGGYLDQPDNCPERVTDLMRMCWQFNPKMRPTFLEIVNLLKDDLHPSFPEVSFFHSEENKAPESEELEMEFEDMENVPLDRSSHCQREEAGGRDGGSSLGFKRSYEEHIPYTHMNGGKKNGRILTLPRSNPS
T9 sequence (P27448 whole entry): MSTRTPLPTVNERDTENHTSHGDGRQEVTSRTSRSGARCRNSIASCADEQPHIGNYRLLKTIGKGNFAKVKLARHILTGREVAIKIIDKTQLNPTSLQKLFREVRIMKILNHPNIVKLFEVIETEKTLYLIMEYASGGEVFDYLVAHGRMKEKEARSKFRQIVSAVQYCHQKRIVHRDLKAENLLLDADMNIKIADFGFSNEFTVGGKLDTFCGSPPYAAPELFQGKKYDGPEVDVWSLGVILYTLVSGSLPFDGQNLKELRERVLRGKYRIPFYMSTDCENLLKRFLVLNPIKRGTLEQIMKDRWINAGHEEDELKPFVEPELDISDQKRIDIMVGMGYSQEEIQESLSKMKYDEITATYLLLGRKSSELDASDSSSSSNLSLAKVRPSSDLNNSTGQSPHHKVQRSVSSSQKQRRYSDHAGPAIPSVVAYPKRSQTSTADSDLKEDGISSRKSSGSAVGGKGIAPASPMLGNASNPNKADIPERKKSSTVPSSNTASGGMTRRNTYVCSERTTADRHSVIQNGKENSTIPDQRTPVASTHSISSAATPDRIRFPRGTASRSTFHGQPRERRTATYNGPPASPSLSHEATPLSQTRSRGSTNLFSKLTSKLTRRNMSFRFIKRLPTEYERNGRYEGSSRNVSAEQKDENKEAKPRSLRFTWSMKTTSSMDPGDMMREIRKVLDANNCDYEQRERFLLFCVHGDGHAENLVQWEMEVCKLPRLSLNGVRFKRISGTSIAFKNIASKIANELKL
T10 sequence (Q13233 whole entry): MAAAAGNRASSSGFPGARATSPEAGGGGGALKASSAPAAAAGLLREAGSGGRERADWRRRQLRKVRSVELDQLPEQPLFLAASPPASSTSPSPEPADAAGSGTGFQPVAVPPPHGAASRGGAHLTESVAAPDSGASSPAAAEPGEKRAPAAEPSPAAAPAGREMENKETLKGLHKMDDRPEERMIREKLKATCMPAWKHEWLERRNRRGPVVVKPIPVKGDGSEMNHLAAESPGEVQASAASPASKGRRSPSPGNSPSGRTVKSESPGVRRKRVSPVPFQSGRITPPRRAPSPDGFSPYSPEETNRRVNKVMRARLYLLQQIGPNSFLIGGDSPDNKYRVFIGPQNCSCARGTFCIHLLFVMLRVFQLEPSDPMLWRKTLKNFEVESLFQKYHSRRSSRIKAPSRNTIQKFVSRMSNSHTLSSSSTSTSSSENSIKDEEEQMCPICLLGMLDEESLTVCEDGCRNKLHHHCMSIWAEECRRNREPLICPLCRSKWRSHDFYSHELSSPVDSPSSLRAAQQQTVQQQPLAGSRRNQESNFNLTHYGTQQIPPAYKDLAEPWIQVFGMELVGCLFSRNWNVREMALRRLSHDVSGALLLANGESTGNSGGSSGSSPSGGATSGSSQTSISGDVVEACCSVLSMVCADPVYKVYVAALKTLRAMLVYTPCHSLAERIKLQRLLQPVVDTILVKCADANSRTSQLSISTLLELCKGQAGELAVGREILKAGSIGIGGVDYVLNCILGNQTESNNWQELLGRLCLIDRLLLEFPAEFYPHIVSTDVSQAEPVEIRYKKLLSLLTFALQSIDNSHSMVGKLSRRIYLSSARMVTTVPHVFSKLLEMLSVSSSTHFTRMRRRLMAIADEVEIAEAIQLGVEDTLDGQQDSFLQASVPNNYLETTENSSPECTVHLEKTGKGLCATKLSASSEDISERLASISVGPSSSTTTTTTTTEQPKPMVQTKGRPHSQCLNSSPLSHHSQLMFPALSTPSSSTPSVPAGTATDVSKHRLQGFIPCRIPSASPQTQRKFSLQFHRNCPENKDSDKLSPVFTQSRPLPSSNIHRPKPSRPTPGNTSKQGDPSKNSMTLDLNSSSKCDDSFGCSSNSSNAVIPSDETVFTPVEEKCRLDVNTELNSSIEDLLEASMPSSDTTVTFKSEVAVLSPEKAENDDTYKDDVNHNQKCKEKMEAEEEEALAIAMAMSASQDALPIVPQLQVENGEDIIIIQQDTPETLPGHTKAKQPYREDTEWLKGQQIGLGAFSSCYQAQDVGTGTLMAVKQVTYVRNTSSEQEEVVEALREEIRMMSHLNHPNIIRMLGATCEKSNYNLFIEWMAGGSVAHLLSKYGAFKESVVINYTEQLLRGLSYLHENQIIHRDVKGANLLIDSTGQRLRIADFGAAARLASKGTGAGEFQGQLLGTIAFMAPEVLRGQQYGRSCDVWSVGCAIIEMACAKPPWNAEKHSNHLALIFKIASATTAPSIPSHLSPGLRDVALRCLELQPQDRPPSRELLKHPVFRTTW
T5 sequence (P51617 whole entry): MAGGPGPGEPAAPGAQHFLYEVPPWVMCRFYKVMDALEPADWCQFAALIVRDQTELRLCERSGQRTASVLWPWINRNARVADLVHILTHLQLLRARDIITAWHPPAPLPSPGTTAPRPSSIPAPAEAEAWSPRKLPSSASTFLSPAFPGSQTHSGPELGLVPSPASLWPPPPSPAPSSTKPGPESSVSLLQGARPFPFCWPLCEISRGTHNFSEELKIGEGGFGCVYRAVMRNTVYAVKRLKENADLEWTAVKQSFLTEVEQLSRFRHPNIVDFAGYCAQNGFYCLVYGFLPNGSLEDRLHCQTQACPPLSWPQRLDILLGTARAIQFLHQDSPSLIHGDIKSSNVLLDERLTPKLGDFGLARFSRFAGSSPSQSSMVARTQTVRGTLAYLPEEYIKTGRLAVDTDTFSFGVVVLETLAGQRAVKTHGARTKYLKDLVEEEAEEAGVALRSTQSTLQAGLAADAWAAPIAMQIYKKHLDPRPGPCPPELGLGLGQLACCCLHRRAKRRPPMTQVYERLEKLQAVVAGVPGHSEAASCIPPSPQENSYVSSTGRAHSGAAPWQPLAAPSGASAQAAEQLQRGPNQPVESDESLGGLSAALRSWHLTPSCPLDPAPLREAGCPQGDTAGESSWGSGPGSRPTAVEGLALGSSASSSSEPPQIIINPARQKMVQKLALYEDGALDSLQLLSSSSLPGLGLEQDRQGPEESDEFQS

For `COCCOc1ccc(-c2cn(-c3ccccc3)c3nc[nH]c(=O)c23)cc1` [DMX-5804, 5-[4-(2-methoxy-ethoxy)-phenyl]-7-phenyl-3,7-dihydro-pyrrolo[2,3-d]pyrimidin-4-one], the remaining activity at 1 µM (BRK) was 88%, the remaining activity at 1 µM (CSK) was 103% and the remaining activity at 1 µM (ERK8) was 110%. For the same compound, the remaining activity at 1 µM (IR) was 115%, the remaining activity at 1 µM (IRAK1) was 100% and the remaining activity at 1 µM (IRAK4) was 97%. The remaining activity at 1 µM (MAPKAP-K3) was 104%, the remaining activity at 1 µM (MARK2) was 98% and the remaining activity at 1 µM (MARK3) was 88%. It also gave a remaining activity at 1 µM (MEKK1) of 111%, a remaining activity at 1 µM (MST2) of 46% and a remaining activity at 1 µM (PAK6) of 118%. It also gave a remaining activity at 1 µM (PKA) of 109% and a remaining activity at 1 µM (p38d MAPK) of 107%.
In the case of `Oc1ncnc2c1c(-c1ccccc1)cn2-c1ccccc1` [F1386-0303, 5,7-diphenyl-7H-pyrrolo[2,3-d]pyrimidin-4-ol], the remaining activity at 1 µM (BRK) is reported as 108%, the remaining activity at 1 µM (CSK) is reported as 97% and the remaining activity at 1 µM (ERK8) is reported as 109%. For the same compound, the remaining activity at 1 µM (IR) was 118%, the remaining activity at 1 µM (IRAK1) was 107% and the remaining activity at 1 µM (IRAK4) was 103%. It also gave a remaining activity at 1 µM (MAPKAP-K3) of 104%, a remaining activity at 1 µM (MARK2) of 98% and a remaining activity at 1 µM (MARK3) of 111%. It also gave a remaining activity at 1 µM (MEKK1) of 97%, a remaining activity at 1 µM (MST2) of 63% and a remaining activity at 1 µM (PAK6) of 105%. For the same compound, the remaining activity at 1 µM (PKA) was 103% and the remaining activity at 1 µM (p38d MAPK) was 114%.
`Nc1ncc(C(=O)NC2CN(C(=O)C3CC3)C2)c2ccc(-c3cccc(F)c3)nc12` [GNE-495] gave a residual activity (BRK; 1 μM) of 94%, a residual activity (CSK; 1 μM) of 94% and a residual activity (ERK8; 1 μM) of 95%. For the same compound, the residual activity (IR; 1 μM) was 107%, the residual activity (IRAK1; 1 μM) was 113% and the residual activity (IRAK4; 1 μM) was 75%. For the same compound, the residual activity (MAPKAP-K3; 1 μM) was 99%, the residual activity (MARK2; 1 μM) was 42% and the residual activity (MARK3; 1 μM) was 46%. The residual activity (MEKK1; 1 μM) was 87%, the residual activity (MST2; 1 μM) was 76% and the residual activity (PAK6; 1 μM) was 64%. It also gave a residual activity (PKA; 1 μM) of 95% and a residual activity (p38d MAPK; 1 μM) of 110%.
Compound `O=C1Nc2ccc(I)cc2/C1=C/c1cc(Br)c(O)c(Br)c1` [GW5074] has a remaining activity at 1 µM (BRK) of 77%, a remaining activity at 1 µM (CSK) of 52% and a remaining activity at 1 µM (ERK8) of 35%. It also gave a remaining activity at 1 µM (IR) of 26%, a remaining activity at 1 µM (IRAK1) of 57% and a remaining activity at 1 µM (IRAK4) of 78%. It also gave a remaining activity at 1 µM (MAPKAP-K3) of 71%, a remaining activity at 1 µM (MARK2) of 49% and a remaining activity at 1 µM (MARK3) of 72%. It also gave a remaining activity at 1 µM (MEKK1) of 5%, a remaining activity at 1 µM (MST2) of 93% and a remaining activity at 1 µM (PAK6) of 95%. The remaining activity at 1 µM (PKA) was 83% and the remaining activity at 1 µM (p38d MAPK) was 82%.
In the case of `O=C1Cc2c([nH]c3ccc(Br)cc23)-c2ccccc2N1` [Kenpaullone], the remaining activity at 1 µM (BRK) is reported as 97%, the remaining activity at 1 µM (CSK) is reported as 68% and the remaining activity at 1 µM (ERK8) is reported as 46%. It also gave a remaining activity at 1 µM (IR) of 43%, a remaining activity at 1 µM (IRAK1) of 39% and a remaining activity at 1 µM (IRAK4) of 65%. It also gave a remaining activity at 1 µM (MAPKAP-K3) of 83%, a remaining activity at 1 µM (MARK2) of 35% and a remaining activity at 1 µM (MARK3) of 62%. It also gave a remaining activity at 1 µM (MEKK1) of 5%, a remaining activity at 1 µM (MST2) of 63% and a remaining activity at 1 µM (PAK6) of 32%. The remaining activity at 1 µM (PKA) was 105% and the remaining activity at 1 µM (p38d MAPK) was 91%.

Source: paper PMC6458995, “MAP4K4 Inhibition Promotes Survival of Human Stem Cell-Derived Cardiomyocytes and Reduces Infarct Size In Vivo” (Cell Stem Cell, 2019)
